Measured values from patent US6806265B2, “Non-nucleoside reverse transcriptase inhibitors” (priority 2002, dated 2004).
Where two headings read alike, the source gives them in different places.

Assays:
[1] = target: T1, HIV-1 RT double mutant K103N/Y181C (Human immunodeficiency virus type 1 group M subtype B, UniProt P03366, K702N/Y780C); experiment: biochemical
T1 construct: HIV-1 wild type reverse transcriptase as well as the clinically significant double mutant K103N/Y181C
Protocol: (§1) Utilizing the Reverse Transcriptase (RT) Assay described below, compounds were tested for their ability to inhibit the RNA-dependent DNA polymerase activity of HIV-1 RT. Certain specific compounds described in the Examples and in Tables 1-4, were so tested. The results of this testing appear in Table 5 as ranges of IC50 (nM) and EC50 (nM).
(§2) Reverse Transcriptase (RT) Assays

[2] = target: T2, HIV-1 wild type reverse transcriptase (Human immunodeficiency virus type 1 group M subtype B, UniProt P03366); experiment: biochemical; settings: wild type RT; read-out: IC50 WT RT
T2 construct: HIV-1 wild type reverse transcriptase
Protocol: as §1, §2

[3] = RT double mutant K103N/Y181C, read-out: IC50 K103N/Y181C

## CCN1c2ncc(CCOc3ccc(-c4cc(C)nc(C)c4)cc3C)cc2C(=O)N(C)c2cccnc21 [Entry 1087]
[1]; [3]
  IC50: < 50 nM
[2]
  IC50: < 50 nM

## CCN1c2ncc(CCOc3ccc(-c4cccc(C(C)C(=O)O)c4)cc3C)cc2C(=O)N(C)c2cccnc21 (centres unmarked) [Entry 1016]
[1]; [3]
  IC50: 50 to 100 nM
[2]
  IC50: < 50 nM

## CCN1c2ncc(CCOc3ccc(-c4cc(C)cnc4N)cc3C)cc2C(=O)N(C)c2cccnc21 [Entry 1082]
[1]; [3]
  IC50: < 50 nM
[2]
  IC50: < 50 nM

## CCN1c2ncc(CCOc3ccc(N(Cc4ccc(C(=O)O)cc4)C(C)=O)cc3C)cc2C(=O)N(C)c2cccnc21 [Entry 4003]
[1]
  IC50: > 100 nM
[2]
  IC50: 50 to 100 nM

## CCN1c2ncc(CCOc3ccc(N(C)c4ccc(C(=O)O)cc4)cc3C)cc2C(=O)N(C)c2cccnc21 [Entry 3023]
[1]
  IC50: 50 to 100 nM
[2]
  IC50: < 50 nM

## CCN1c2ncc(CCOc3ccc(-c4cccnc4C)cc3C)cc2C(=O)N(C)c2cccnc21 [Entry 1074]
[1]; [3]
  IC50: < 50 nM
[2]
  IC50: < 50 nM

## CCN1c2ncc(CCOc3cccc(-c4cccc(C(=O)O)c4)c3)cc2C(=O)N(C)c2cccnc21 [Entry 2002]
[2]
  IC50: > 100 nM

## CCN1c2ncc(CCOc3ccc(-c4ccc(CC(=O)O)cc4[N+](=O)[O-])cc3C)cc2C(=O)N(C)c2cccnc21 [Entry 1027]
[1]; [3]
  IC50: 50 to 100 nM
[2]
  IC50: < 50 nM

## CCN1c2ncc(CCOc3ccc(-c4ccc(C(=O)O)o4)cc3)cc2C(=O)N(C)c2cccnc21 [Entry 1045]
[1]; [3]
  IC50: 50 to 100 nM
[2]
  IC50: < 50 nM

## CCN1c2ncc(CCOc3ccc(-c4nc(C(=O)O)cs4)cc3)cc2C(=O)N(C)c2cccnc21 [Entry 1039]
[1]; [3]
  IC50: > 100 nM
[2]
  IC50: < 50 nM

## CCN1c2ncc(CCOc3ccc(-c4cc(C(=O)O)ccc4F)cc3C)cc2C(=O)N(C)c2cccnc21 [Entry 1029]
[1]; [3]
  IC50: 50 to 100 nM
[2]
  IC50: < 50 nM

## CCN1c2ncc(CCOc3ccc(-c4ncccn4)cc3)cc2C(=O)N(C)c2cccnc21 [Entry 1061]
[1]; [3]
  IC50: > 100 nM
[2]
  IC50: < 50 nM

## CCN1c2ncc(CCOc3ccc(N(CC(=O)O)C(C)=O)cc3C)cc2C(=O)N(C)c2cccnc21 [Entry 4002]
[1]
  IC50: > 100 nM
[2]
  IC50: < 50 nM

## CCN1c2ncc(CCOc3ccc(C(=O)NN)cc3C)cc2C(=O)Nc2c(C)ccnc21 [Entry 4019]
[1]; [3]
  IC50: 50 to 100 nM
[2]
  IC50: < 50 nM

## CCN1c2ncc(CCOc3ccc(-c4ccc(CC(=O)O)cc4C)cc3C)cc2C(=O)N(C)c2cccnc21 [Entry 1023]
[1]; [3]
  IC50: 50 to 100 nM

## CCN1c2ncc(CCOc3ccc(C(=O)NCc4ccc(C(=O)O)cc4)cc3C)cc2C(=O)N(C)c2cccnc21 [Entry 3002]
[1]
  IC50: < 50 nM
[2]
  IC50: < 50 nM

## CCN1c2ncc(CCOc3ccc(-c4cc(C(=O)O)ccc4OC)cc3C)cc2C(=O)N(C)c2cccnc21 [Entry 1030]
[1]; [3]
  IC50: > 100 nM
[2]
  IC50: < 50 nM

## CCN1c2ncc(CCOc3ccc(C(=O)N(C)Cc4ccc(C(=O)O)cc4)cc3C)cc2C(=O)N(C)c2cccnc21 [Entry 3006]
[1]
  IC50: 50 to 100 nM
[2]
  IC50: < 50 nM

## CCN1c2ncc(CCOc3ccc(-c4cscn4)cc3)cc2C(=O)N(C)c2cccnc21 [Entry 1092]
[1]; [3]
  IC50: > 100 nM
[2]
  IC50: < 50 nM

## CCN1c2ncc(CCOc3ccc(-c4ccc(C)[n+]([O-])c4C)cc3C)cc2C(=O)N(C)c2cccnc21 [Entry 1078]
[1]; [3]
  IC50: < 50 nM
[2]
  IC50: < 50 nM

## CCN1c2ncc(CCOc3ccc(NS(C)(=O)=O)cc3C)cc2C(=O)N(C)c2cccnc21 [Entry 4005]
[1]
  IC50: < 50 nM
[2]
  IC50: < 50 nM

## CCN1c2ncc(CCOc3ccc(C(=O)Nc4ccc[n+]([O-])c4)cc3C)cc2C(=O)N(C)c2cccnc21 [Entry 3013]
[1]
  IC50: < 50 nM
[2]
  IC50: < 50 nM

## CCN1c2ncc(CCOc3cccc(-c4ccc(C(=O)O)cc4)c3)cc2C(=O)N(C)c2cccnc21 [Entry 2001, 3′-[2-(11-Ethyl-6,11-dihydro-5-methyl-6-oxo-5H-dipyrido[3,2-b:2′,3′-e][1,4]diazepin-8-yl)ethoxy]-[1,1′-biphenyl]-4-carboxylic acid]
[2]
  IC50: > 100 nM

## CCN1c2ncc(CCOc3ccc(-c4occc4C(=O)O)cc3)cc2C(=O)N(C)c2cccnc21 [Entry 1050]
[2]
  IC50: > 100 nM
